Laboratory results: PubChem BioAssay (NCI)
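Step 1: Grow cells in 96-well plates. Step 2: Expose to compound for 48 hours at 5 concentrations. Step 3: Interpolate endpoints linearly; if unreached, use highest concentration. At the GI50, growth is halved. TGI: concentration producing complete growth inhibition.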

Key:
Assay in all cases: inhibition of tumour cell growth, NCI panel, 48 h
[1] = system: SF-268 CNS
[2] = system: MDA-MB-231 breast
[3] = system: ACHN renal
[4] = system: MDA-MB-435
[5] = system: SK-MEL-28 melanoma
[6] = system: HL-60(TB) leukemia
[7] = system: HCT-15 colon
[8] = system: HT29 colon
[9] = system: K-562 leukemia
[10] = system: NCI-H226 lung
[11] = system: HOP-92 NSCLC
[12] = system: SN12C renal
[13] = system: MDA-N
[14] = system: SF-539 CNS
[15] = system: M14 melanoma
[16] = system: OVCAR-4 ovarian
[17] = system: RXF 393 renal
[18] = system: NCI-H460 lung
[19] = system: OVCAR-8 ovarian
[20] = system: NCI-H522 lung
[21] = system: HCT-116 colon
[22] = system: HS 578T breast
[23] = system: MCF7 breast
[24] = system: T-47D breast
[25] = system: RPMI-8226 leukemia
[26] = system: A498 renal
[27] = system: 786-0 renal
[28] = system: NCI-H23 lung
[29] = system: A549 NSCLC
[30] = system: DU-145 prostate
[31] = system: UACC-257 melanoma
[32] = system: MALME-3M melanoma
[33] = system: OVCAR-3 ovarian
[34] = system: COLO 205 colon
[35] = system: HOP-62 NSCLC
[36] = system: SW-620 colon
[37] = system: TK-10 renal
[38] = system: SK-OV-3 ovarian
[39] = system: LOX IMVI melanoma
[40] = system: NCI/ADR-RES ovarian
[41] = system: SF-295 CNS
[42] = system: IGROV1 ovarian
[43] = system: EKVX NSCLC
[44] = system: UACC-62 melanoma
[45] = system: UO-31 renal
[46] = system: SNB-19 CNS
[47] = system: CAKI-1 renal
[48] = system: SR leukemia
[49] = system: HCC-2998 colon
[50] = system: PC-3 prostate
[51] = system: U251 CNS
[52] = system: SK-MEL-2 melanoma
[53] = system: MOLT-4 leukemia
[54] = system: KM12 colon
[55] = system: OVCAR-5 ovarian
[56] = system: SK-MEL-5 melanoma
[57] = system: BT-549 breast
[58] = system: SNB-75 CNS
[59] = system: CCRF-CEM leukemia

C=C1CCCCCCCCC/C=C/1SCCCSC
TGI [1]: > 100 µM | TGI [2]: > 100 µM | TGI [3]: > 100 µM | TGI [4]: > 100 µM | TGI [5]: > 100 µM | TGI [6]: > 100 µM | TGI [7]: > 100 µM | TGI [8]: > 100 µM | TGI [9]: > 100 µM | TGI [10]: > 100 µM | TGI [11]: > 100 µM | TGI [12]: > 100 µM | TGI [13]: > 100 µM | TGI [14]: > 100 µM | TGI [15]: > 100 µM | TGI [16]: > 100 µM | TGI [17]: > 100 µM | TGI [18]: > 100 µM | TGI [19]: > 100 µM | TGI [20]: > 100 µM | TGI [21]: > 100 µM | TGI [22]: > 100 µM | TGI [23]: > 100 µM | TGI [24]: > 100 µM | TGI [25]: > 100 µM | TGI [26]: > 100 µM | TGI [27]: > 100 µM | TGI [28]: > 100 µM | TGI [29]: > 100 µM | TGI [30]: > 100 µM | TGI [31]: > 100 µM | TGI [32]: > 100 µM | TGI [33]: > 100 µM | TGI [34]: > 100 µM | TGI [35]: > 100 µM | TGI [36]: > 100 µM | TGI [37]: > 100 µM | TGI [38]: > 100 µM | TGI [39]: > 100 µM | TGI [40]: > 100 µM | TGI [41]: > 100 µM | TGI [42]: > 100 µM | TGI [43]: > 100 µM | TGI [44]: > 100 µM | TGI [45]: > 100 µM | TGI [46]: > 100 µM | TGI [47]: > 100 µM | TGI [48]: > 100 µM | TGI [49]: > 100 µM | TGI [50]: > 100 µM | TGI [51]: > 100 µM | TGI [52]: > 100 µM | TGI [53]: > 100 µM | TGI [54]: > 100 µM | TGI [55]: > 100 µM | TGI [56]: > 100 µM

Nc1c(C(=O)Nc2ccccc2Cl)sc2nc3c(cc12)C(=O)CCC3
GI50 [1]: 39.3 µM | TGI [1]: > 100 µM | GI50 [2]: 6.97 µM | TGI [2]: > 100 µM | GI50 [3]: 15.9 µM | TGI [3]: > 100 µM | GI50 [4]: 0.137 µM | TGI [4]: 0.349 µM | GI50 [5]: 22.4 µM | TGI [5]: > 100 µM | GI50 [6]: 3.72 µM | TGI [6]: > 100 µM | GI50 [7]: 0.626 µM | TGI [7]: > 100 µM | GI50 [8]: 0.61 µM | TGI [8]: > 100 µM | GI50 [9]: 0.493 µM | TGI [9]: > 100 µM | GI50 [10]: 14.6 µM | TGI [10]: > 100 µM | GI50 [11]: 7.29 µM | TGI [11]: > 100 µM | GI50 [12]: > 100 µM | TGI [12]: > 100 µM | GI50 [14]: 1.15 µM | TGI [14]: > 100 µM | GI50 [15]: 1.06 µM | TGI [15]: > 100 µM | GI50 [16]: > 27.5 µM | TGI [16]: > 100 µM | GI50 [17]: 2.37 µM | TGI [17]: > 28.7 µM | GI50 [18]: 0.673 µM | TGI [18]: > 100 µM | GI50 [19]: > 25 µM | TGI [19]: > 100 µM | GI50 [20]: 0.777 µM | TGI [20]: > 100 µM | GI50 [57]: > 100 µM | TGI [57]: > 100 µM | GI50 [21]: 54.9 µM | TGI [21]: > 100 µM | GI50 [22]: 3.56 µM | TGI [22]: > 100 µM | GI50 [23]: 0.494 µM | TGI [23]: > 100 µM | GI50 [24]: > 40 µM | TGI [24]: > 100 µM | GI50 [25]: > 100 µM | TGI [25]: > 100 µM | GI50 [26]: 0.229 µM | TGI [26]: > 100 µM | GI50 [27]: 37.7 µM | TGI [27]: > 100 µM | GI50 [28]: 2.04 µM | TGI [28]: > 100 µM | GI50 [29]: 0.648 µM | TGI [29]: > 100 µM | GI50 [30]: 10.3 µM | TGI [30]: > 100 µM | GI50 [31]: 1.62 µM | TGI [31]: > 100 µM | GI50 [58]: 2.46 µM | TGI [58]: > 84 µM | GI50 [32]: 2.78 µM | TGI [32]: > 100 µM | GI50 [33]: 1.22 µM | TGI [33]: > 100 µM | GI50 [34]: 0.724 µM | TGI [34]: 3.54 µM | GI50 [35]: 4.33 µM | TGI [35]: > 67.3 µM | GI50 [36]: 0.556 µM | TGI [36]: > 100 µM | GI50 [37]: 78.6 µM | TGI [37]: > 100 µM | GI50 [38]: 0.782 µM | TGI [38]: > 50.5 µM | GI50 [39]: 51.9 µM | TGI [39]: > 100 µM | GI50 [40]: 5.34 µM | TGI [40]: > 100 µM | GI50 [41]: 0.542 µM | TGI [41]: > 27.5 µM | GI50 [42]: > 100 µM | TGI [42]: > 100 µM | GI50 [59]: > 100 µM | TGI [59]: > 100 µM | GI50 [44]: 0.789 µM | TGI [44]: > 100 µM | GI50 [45]: > 100 µM | TGI [45]: > 100 µM | GI50 [46]: 12.5 µM | TGI [46]: > 100 µM | GI50 [47]: 1.84 µM | TGI [47]: > 100 µM | TGI [48]: > 100 µM | GI50 [49]: 21.2 µM | TGI [49]: > 100 µM | GI50 [50]: 1.16 µM | TGI [50]: > 100 µM | GI50 [51]: 4.18 µM | TGI [51]: > 100 µM | GI50 [52]: 1.09 µM | TGI [52]: > 100 µM | GI50 [53]: > 100 µM | TGI [53]: > 100 µM | GI50 [54]: 0.592 µM | TGI [54]: > 100 µM | GI50 [55]: > 100 µM | TGI [55]: > 100 µM | GI50 [56]: 1.02 µM | TGI [56]: > 100 µM

CC1(C)OP(=O)(O)C=C1Sc1ccc([N+](=O)[O-])cc1[N+](=O)[O-]
TGI [1]: > 100 µM | TGI [3]: > 100 µM | TGI [4]: > 100 µM | TGI [5]: > 100 µM | TGI [6]: > 100 µM | TGI [7]: > 100 µM | TGI [8]: > 100 µM | TGI [9]: > 100 µM | TGI [10]: > 100 µM | TGI [11]: > 100 µM | TGI [12]: > 100 µM | TGI [13]: > 100 µM | TGI [14]: > 100 µM | TGI [15]: > 100 µM | TGI [16]: > 100 µM | TGI [18]: > 100 µM | TGI [19]: > 100 µM | TGI [20]: > 100 µM | TGI [21]: > 100 µM | TGI [22]: > 100 µM | TGI [23]: > 100 µM | TGI [24]: > 100 µM | TGI [26]: > 100 µM | TGI [27]: > 100 µM | TGI [28]: > 100 µM | TGI [29]: > 100 µM | TGI [30]: > 100 µM | TGI [31]: > 100 µM | TGI [58]: > 100 µM | TGI [32]: > 100 µM | TGI [33]: > 100 µM | TGI [34]: > 100 µM | TGI [35]: > 100 µM | TGI [36]: > 100 µM | TGI [37]: > 100 µM | TGI [38]: > 100 µM | TGI [39]: > 100 µM | TGI [40]: > 100 µM | TGI [41]: > 100 µM | TGI [42]: > 100 µM | TGI [43]: > 100 µM | TGI [44]: > 100 µM | TGI [46]: > 100 µM | TGI [47]: > 100 µM | TGI [48]: > 100 µM | TGI [49]: > 100 µM | TGI [50]: > 100 µM | TGI [51]: > 100 µM | TGI [52]: > 100 µM | TGI [54]: > 100 µM | TGI [55]: > 100 µM | TGI [56]: > 100 µM
